{"source": "PubChem BioAssay (NCI)", "assay_in_all_cases": "NCI anticancer screen, dose series, 48 h", "key": {"[1]": {"tested_on": "RPMI-8226 leukemia"}, "[2]": {"tested_on": "NCI-H226 lung"}, "[3]": {"tested_on": "SNB-19 CNS"}, "[4]": {"tested_on": "RXF 393 renal"}, "[5]": {"tested_on": "A498 renal"}, "[6]": {"tested_on": "COLO 205 colon"}, "[7]": {"tested_on": "HOP-92 NSCLC"}, "[8]": {"tested_on": "MOLT-4 leukemia"}, "[9]": {"tested_on": "T-47D breast"}, "[10]": {"tested_on": "SW-620 colon"}, "[11]": {"tested_on": "OVCAR-4 ovarian"}, "[12]": {"tested_on": "786-0 renal"}, "[13]": {"tested_on": "HS 578T breast"}, "[14]": {"tested_on": "SN12C renal"}, "[15]": {"tested_on": "IGROV1 ovarian"}, "[16]": {"tested_on": "MDA-MB-468 breast"}, "[17]": {"tested_on": "MDA-MB-435"}, "[18]": {"tested_on": "A549 NSCLC"}, "[19]": {"tested_on": "SK-OV-3 ovarian"}, "[20]": {"tested_on": "HCT-15 colon"}, "[21]": {"tested_on": "SR leukemia"}, "[22]": {"tested_on": "SNB-75 CNS"}, "[23]": {"tested_on": "U251 CNS"}, "[24]": {"tested_on": "SK-MEL-5 melanoma"}, "[25]": {"tested_on": "SF-539 CNS"}, "[26]": {"tested_on": "KM12 colon"}, "[27]": {"tested_on": "SK-MEL-2 melanoma"}, "[28]": {"tested_on": "EKVX NSCLC"}, "[29]": {"tested_on": "LOX IMVI melanoma"}, "[30]": {"tested_on": "UACC-257 melanoma"}}, "note": "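Compound exposure: 48 hours, 5 concentrations, 96-well plates. GI50: concentration for 50% inhibition of growth. TGI marks complete inhibition of growth.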", "data": [{"compound": "COC(=O)c1c(C(=O)OC)c2ccc3c4ccccc4ccc3n2c1C(=O)C(C)Br", "note": "(centres undefined)", "values": [{"measurement": "GI50", "setting": "[1]", "result": 7.43, "unit": "µM"}, {"measurement": "TGI", "setting": "[1]", "result": 48.1, "unit": "µM"}, {"measurement": "GI50", "setting": "[2]", "result": 25.6, "unit": "µM"}, {"measurement": "TGI", "setting": "[2]", "result": "> 100", "unit": "µM"}, {"measurement": "GI50", "setting": "[3]", "result": 51.5, "unit": "µM"}, {"measurement": "TGI", "setting": "[3]", "result": "> 100", "unit": "µM"}, {"measurement": "GI50", "setting": "[4]", "result": 2.79, "unit": "µM"}, {"measurement": "TGI", "setting": "[4]", "result": 36.7, "unit": "µM"}, {"measurement": "GI50", "setting": "[5]", "result": 88.1, "unit": "µM"}, {"measurement": "TGI", "setting": "[5]", "result": "> 100", "unit": "µM"}, {"measurement": "GI50", "setting": "[6]", "result": 38.8, "unit": "µM"}, {"measurement": "TGI", "setting": "[6]", "result": "> 100", "unit": "µM"}, {"measurement": "GI50", "setting": "[7]", "result": 15.2, "unit": "µM"}, {"measurement": "TGI", "setting": "[7]", "result": "> 100", "unit": "µM"}, {"measurement": "GI50", "setting": "[8]", "result": 3.3, "unit": "µM"}, {"measurement": "TGI", "setting": "[8]", "result": "> 100", "unit": "µM"}, {"measurement": "GI50", "setting": "[9]", "result": 11.5, "unit": "µM"}, {"measurement": "TGI", "setting": "[9]", "result": "> 100", "unit": "µM"}, {"measurement": "GI50", "setting": "[10]", "result": 7.26, "unit": "µM"}, {"measurement": "TGI", "setting": "[10]", "result": 58.3, "unit": "µM"}, {"measurement": "GI50", "setting": "[11]", "result": 25.6, "unit": "µM"}, {"measurement": "TGI", "setting": "[11]", "result": "> 100", "unit": "µM"}, {"measurement": "GI50", "setting": "[12]", "result": 21.1, "unit": "µM"}, {"measurement": "TGI", "setting": "[12]", "result": "> 100", "unit": "µM"}, {"measurement": "GI50", "setting": "[13]", "result": 18.8, "unit": "µM"}, {"measurement": "TGI", "setting": "[13]", "result": 92.7, "unit": "µM"}, {"measurement": "GI50", "setting": "[14]", "result": 17.2, "unit": "µM"}, {"measurement": "TGI", "setting": "[14]", "result": "> 100", "unit": "µM"}, {"measurement": "GI50", "setting": "[15]", "result": 33.2, "unit": "µM"}, {"measurement": "TGI", "setting": "[15]", "result": "> 100", "unit": "µM"}, {"measurement": "GI50", "setting": "[16]", "result": 13.2, "unit": "µM"}, {"measurement": "TGI", "setting": "[16]", "result": 52.4, "unit": "µM"}, {"measurement": "GI50", "setting": "[17]", "result": 16.1, "unit": "µM"}, {"measurement": "TGI", "setting": "[17]", "result": "> 100", "unit": "µM"}, {"measurement": "GI50", "setting": "[18]", "result": 42.2, "unit": "µM"}, {"measurement": "TGI", "setting": "[18]", "result": "> 100", "unit": "µM"}, {"measurement": "GI50", "setting": "[19]", "result": "> 100", "unit": "µM"}, {"measurement": "TGI", "setting": "[19]", "result": "> 100", "unit": "µM"}, {"measurement": "GI50", "setting": "[20]", "result": 6.17, "unit": "µM"}, {"measurement": "TGI", "setting": "[20]", "result": 30.3, "unit": "µM"}, {"measurement": "GI50", "setting": "[21]", "result": 5.87, "unit": "µM"}, {"measurement": "TGI", "setting": "[21]", "result": "> 100", "unit": "µM"}, {"measurement": "GI50", "setting": "[22]", "result": 24.7, "unit": "µM"}, {"measurement": "TGI", "setting": "[22]", "result": "> 100", "unit": "µM"}, {"measurement": "GI50", "setting": "[23]", "result": 18.3, "unit": "µM"}, {"measurement": "TGI", "setting": "[23]", "result": "> 100", "unit": "µM"}, {"measurement": "GI50", "setting": "[24]", "result": 13, "unit": "µM"}, {"measurement": "TGI", "setting": "[24]", "result": 46.8, "unit": "µM"}, {"measurement": "GI50", "setting": "[25]", "result": 10.9, "unit": "µM"}, {"measurement": "TGI", "setting": "[25]", "result": 25.6, "unit": "µM"}, {"measurement": "GI50", "setting": "[26]", "result": "> 100", "unit": "µM"}, {"measurement": "TGI", "setting": "[26]", "result": "> 100", "unit": "µM"}, {"measurement": "GI50", "setting": "[27]", "result": 17.9, "unit": "µM"}, {"measurement": "TGI", "setting": "[27]", "result": 94.1, "unit": "µM"}, {"measurement": "GI50", "setting": "[28]", "result": 42.4, "unit": "µM"}, {"measurement": "TGI", "setting": "[28]", "result": "> 100", "unit": "µM"}, {"measurement": "GI50", "setting": "[29]", "result": 4.35, "unit": "µM"}, {"measurement": "TGI", "setting": "[29]", "result": 23.7, "unit": "µM"}, {"measurement": "GI50", "setting": "[30]", "result": 44.2, "unit": "µM"}]}]}
